Our source for the % of control and % of inhibition values is ChEMBL document CHEMBL5465560, “Selectivity Literature for EUbOPEN Chemogenomic Library” (2024).

The target in test [1] is Serine/threonine-protein kinase mTOR (Homo sapiens, UniProt P42345). The test is described as follows: Selectivity interaction (Kinase panel (Z-LYTE Assay)) EUB0001632a MTOR. The note with it: at 10 µM.
Test [2] has as its target T1, MAP kinase-activated protein kinase 5 (Homo sapiens) (UniProt Q8IW41).
T1 sequence (whole entry): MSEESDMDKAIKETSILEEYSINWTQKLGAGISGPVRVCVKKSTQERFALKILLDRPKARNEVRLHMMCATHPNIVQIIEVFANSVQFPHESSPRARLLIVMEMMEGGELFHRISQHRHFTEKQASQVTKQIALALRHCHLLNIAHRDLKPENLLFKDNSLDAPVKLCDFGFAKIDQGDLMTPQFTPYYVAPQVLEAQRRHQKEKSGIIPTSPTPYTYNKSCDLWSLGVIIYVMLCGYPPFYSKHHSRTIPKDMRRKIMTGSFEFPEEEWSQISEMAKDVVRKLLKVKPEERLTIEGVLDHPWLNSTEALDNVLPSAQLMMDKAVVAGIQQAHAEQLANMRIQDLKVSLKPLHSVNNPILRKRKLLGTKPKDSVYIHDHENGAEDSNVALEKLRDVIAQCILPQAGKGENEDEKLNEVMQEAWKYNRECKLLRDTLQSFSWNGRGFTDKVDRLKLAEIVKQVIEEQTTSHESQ
The test is described as follows: Selectivity interaction (KinomeScan (DiscoverX)) EUB0000595a MAPKAPK5. The note with it: at 10 µM.

For test [3], the target named is T2, Beta-adrenergic receptor kinase 1 (Homo sapiens) (UniProt P25098).
T2 sequence (whole entry): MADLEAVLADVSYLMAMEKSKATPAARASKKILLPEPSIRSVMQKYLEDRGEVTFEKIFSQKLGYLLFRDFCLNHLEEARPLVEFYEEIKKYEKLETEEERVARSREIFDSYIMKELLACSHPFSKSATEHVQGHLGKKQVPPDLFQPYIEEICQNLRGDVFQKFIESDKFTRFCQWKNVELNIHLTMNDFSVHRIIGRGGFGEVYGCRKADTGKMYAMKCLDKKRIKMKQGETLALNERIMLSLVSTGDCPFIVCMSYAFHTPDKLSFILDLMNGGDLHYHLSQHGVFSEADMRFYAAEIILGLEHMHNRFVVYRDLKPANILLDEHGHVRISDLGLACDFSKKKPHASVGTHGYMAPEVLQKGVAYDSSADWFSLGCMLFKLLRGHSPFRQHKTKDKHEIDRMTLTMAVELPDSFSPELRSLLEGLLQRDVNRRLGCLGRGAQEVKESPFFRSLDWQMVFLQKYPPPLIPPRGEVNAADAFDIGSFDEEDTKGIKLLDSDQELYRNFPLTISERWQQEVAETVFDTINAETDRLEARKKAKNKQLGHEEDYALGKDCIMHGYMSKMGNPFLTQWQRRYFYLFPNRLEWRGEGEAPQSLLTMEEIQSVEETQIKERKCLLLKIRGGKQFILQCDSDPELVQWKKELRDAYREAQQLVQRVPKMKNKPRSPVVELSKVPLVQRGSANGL
The test is described as follows: Selectivity interaction (ActivX KiNativ screen (ex vivo kinase selectivity in human PBMCs)) EUB0001619a ADRBK1. It counts as cell-based. The note with it: PBMC, at 1 µM.

The next test concerns the target Ephrin type-A receptor 4 (Homo sapiens, UniProt P54764). Description: Selectivity interaction (KinomeScan (DiscoverX)) EUB0000666a EPHA4. The note with it: at 10 µM.
Test [4] concerns the target T3, Non-receptor tyrosine-protein kinase TNK1 (Homo sapiens) (UniProt Q13470).
T3 sequence (whole entry): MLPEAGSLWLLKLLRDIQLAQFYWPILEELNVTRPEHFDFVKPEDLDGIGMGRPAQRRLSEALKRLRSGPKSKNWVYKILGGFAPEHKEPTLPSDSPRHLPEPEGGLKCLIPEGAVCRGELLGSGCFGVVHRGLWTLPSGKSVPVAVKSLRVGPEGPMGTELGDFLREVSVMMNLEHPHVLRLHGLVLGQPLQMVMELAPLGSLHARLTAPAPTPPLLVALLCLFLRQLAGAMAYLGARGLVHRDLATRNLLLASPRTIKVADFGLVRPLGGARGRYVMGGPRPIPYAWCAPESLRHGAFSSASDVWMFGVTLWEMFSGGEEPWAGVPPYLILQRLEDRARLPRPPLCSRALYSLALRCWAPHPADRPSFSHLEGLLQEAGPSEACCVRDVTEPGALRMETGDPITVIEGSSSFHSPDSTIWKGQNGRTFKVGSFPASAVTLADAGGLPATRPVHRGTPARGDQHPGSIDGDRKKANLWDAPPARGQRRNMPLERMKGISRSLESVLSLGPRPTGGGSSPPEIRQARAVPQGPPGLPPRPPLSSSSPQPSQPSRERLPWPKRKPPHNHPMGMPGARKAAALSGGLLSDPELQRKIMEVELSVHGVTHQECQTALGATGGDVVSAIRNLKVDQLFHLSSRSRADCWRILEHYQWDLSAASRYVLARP
Description: Selectivity interaction (Kinase panel (Carna Biosciences)) EUB0001542aTs TNK1. The note with it: at 1 µM.

Test [5] has as its target Myosin light chain kinase 2, skeletal/cardiac muscle (Homo sapiens) (UniProt Q9H1R3). Description: Selectivity interaction (KinomeScan (DiscoverX)) EUB0000655a MYLK2. The note with it: at 10 µM.
The target in test [6] is T4, Serine/threonine-protein kinase Chk1 (Homo sapiens) (UniProt O14757).
T4 sequence (whole entry): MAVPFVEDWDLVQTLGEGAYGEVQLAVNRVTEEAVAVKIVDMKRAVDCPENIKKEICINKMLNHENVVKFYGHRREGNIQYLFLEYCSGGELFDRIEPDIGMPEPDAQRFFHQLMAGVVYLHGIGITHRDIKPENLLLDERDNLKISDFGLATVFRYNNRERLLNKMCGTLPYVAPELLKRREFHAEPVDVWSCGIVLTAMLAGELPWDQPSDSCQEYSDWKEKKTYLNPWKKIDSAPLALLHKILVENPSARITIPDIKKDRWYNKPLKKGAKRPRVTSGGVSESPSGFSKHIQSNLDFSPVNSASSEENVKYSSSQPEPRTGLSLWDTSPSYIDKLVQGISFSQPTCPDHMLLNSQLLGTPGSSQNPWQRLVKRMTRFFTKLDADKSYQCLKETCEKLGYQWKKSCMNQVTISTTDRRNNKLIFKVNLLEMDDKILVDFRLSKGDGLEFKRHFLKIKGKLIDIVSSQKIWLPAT
Description: Selectivity interaction (KinomeScan (DiscoverX)) EUB0000655a CHEK1. The note with it: at 10 µM.

Test [7] addresses TRAF2 and NCK-interacting protein kinase (Homo sapiens) (UniProt Q9UKE5). The test is described as follows: Selectivity interaction (KinomeScan (DiscoverX)) EUB0000618a TNIK. The note with it: at 10 µM.

Chain of Ephrin type-A receptor 4 (P54764 whole entry): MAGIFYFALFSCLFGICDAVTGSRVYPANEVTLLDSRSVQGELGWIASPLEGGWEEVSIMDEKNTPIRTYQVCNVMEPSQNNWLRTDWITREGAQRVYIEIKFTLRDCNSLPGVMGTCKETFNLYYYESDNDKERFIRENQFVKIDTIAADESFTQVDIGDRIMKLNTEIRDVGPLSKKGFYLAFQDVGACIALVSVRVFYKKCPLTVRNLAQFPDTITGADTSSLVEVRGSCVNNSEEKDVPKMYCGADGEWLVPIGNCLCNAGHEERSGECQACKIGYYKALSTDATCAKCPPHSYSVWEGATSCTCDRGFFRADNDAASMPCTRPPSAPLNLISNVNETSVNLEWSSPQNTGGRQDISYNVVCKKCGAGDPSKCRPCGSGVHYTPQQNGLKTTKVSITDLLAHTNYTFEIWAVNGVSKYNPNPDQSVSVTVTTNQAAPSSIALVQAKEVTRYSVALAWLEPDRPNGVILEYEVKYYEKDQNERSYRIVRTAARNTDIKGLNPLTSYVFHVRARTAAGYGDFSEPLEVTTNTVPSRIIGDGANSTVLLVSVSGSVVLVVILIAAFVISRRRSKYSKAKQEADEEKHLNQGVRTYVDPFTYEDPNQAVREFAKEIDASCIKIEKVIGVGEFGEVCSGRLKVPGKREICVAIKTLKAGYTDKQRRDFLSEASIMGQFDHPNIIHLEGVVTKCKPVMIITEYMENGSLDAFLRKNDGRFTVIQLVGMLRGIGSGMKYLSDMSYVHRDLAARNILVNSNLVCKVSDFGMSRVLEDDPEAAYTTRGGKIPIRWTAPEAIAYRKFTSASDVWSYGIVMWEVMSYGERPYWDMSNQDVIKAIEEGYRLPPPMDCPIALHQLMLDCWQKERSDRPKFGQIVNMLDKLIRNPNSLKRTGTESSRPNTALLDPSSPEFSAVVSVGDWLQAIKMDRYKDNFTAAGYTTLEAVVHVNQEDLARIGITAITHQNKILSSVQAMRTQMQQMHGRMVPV
Chain of TRAF2 and NCK-interacting protein kinase (Homo sapiens) (Q9UKE5 whole entry, looked up): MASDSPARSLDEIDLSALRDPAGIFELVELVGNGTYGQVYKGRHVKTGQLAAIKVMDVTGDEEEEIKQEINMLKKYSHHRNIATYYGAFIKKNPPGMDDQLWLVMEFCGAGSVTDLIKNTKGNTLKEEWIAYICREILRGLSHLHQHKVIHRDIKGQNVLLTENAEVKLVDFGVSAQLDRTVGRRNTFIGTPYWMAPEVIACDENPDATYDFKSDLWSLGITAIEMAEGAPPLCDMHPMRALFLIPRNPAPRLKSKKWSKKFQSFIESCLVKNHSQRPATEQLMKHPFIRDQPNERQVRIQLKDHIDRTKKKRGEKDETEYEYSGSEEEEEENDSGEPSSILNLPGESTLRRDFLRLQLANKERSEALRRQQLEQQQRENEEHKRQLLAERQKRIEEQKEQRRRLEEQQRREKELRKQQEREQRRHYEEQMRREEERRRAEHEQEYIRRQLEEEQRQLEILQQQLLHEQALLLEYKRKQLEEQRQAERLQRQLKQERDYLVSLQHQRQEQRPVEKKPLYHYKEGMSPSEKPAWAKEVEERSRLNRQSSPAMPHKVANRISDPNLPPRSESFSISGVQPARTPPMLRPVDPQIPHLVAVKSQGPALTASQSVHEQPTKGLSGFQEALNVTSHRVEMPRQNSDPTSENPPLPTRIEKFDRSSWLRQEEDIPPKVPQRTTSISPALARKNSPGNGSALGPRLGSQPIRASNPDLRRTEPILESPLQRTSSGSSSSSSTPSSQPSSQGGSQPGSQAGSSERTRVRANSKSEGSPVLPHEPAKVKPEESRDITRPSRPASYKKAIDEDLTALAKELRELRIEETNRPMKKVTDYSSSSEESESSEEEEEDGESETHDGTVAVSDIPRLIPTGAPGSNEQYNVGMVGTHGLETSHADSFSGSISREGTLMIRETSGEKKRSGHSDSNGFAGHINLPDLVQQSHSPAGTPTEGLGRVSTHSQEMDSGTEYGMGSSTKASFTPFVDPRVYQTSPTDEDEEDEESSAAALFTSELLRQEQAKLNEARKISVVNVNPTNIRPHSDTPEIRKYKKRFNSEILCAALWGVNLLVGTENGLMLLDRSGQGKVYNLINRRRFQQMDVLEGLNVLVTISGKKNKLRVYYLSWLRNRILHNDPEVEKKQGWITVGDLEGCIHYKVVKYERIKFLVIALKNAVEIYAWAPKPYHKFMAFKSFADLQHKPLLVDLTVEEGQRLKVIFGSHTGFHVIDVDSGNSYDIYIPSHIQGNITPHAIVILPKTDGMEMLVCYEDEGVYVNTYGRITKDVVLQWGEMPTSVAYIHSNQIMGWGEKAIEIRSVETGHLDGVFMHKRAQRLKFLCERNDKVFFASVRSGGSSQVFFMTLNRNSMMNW
Chain of Myosin light chain kinase 2, skeletal/cardiac muscle (Homo sapiens) (Q9H1R3 whole entry): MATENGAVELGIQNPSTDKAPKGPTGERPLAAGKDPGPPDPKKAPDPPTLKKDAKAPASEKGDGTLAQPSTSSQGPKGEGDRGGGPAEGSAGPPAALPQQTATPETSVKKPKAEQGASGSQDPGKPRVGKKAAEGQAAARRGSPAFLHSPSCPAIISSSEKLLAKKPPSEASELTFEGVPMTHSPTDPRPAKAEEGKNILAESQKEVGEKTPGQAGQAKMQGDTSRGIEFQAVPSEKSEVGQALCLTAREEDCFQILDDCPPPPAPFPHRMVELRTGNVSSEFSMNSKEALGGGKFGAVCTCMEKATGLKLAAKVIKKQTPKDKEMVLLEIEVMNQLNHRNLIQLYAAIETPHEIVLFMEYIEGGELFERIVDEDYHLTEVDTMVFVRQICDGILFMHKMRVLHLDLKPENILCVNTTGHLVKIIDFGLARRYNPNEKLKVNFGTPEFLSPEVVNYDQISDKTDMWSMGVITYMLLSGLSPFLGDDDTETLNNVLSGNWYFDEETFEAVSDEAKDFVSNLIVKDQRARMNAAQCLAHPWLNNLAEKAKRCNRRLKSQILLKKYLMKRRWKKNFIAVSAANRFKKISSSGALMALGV

In the case of `Cn1cc(-n2cnc3c(NCc4nc5cc(Cl)c(Cl)cc5[nH]4)nc(N4CCOCC4)nc32)cn1`, in test [1], the % of control amounted to 7.22%.

In the case of `COCC(=O)NC/C=C/c1ccc2ncnc(Nc3ccc(Oc4ccc(C)nc4)c(C)c3)c2c1` [CP-724714], the % of control in test [2] turned out to be 100%.

As to `N#Cc1cccc(-c2c[nH]c3ncnc(N4CCOCC4)c23)c1`, the % of inhibition in test [3] is -5%. For `O=C(NOC[C@H](O)CO)c1ccc(F)c(F)c1Nc1ccc(I)cc1F`, the % of control at Ephrin type-A receptor 4 came to 100%. Consider `Cn1cc(Nc2nccc(N3CC4CCC(C3)N4C(=O)[C@@H]3CC3(F)F)n2)cn1`, for which the % of inhibition in test [4] turned out to be 64%. As to `CN(C)CCOc1ccc(-c2nc(-c3ccncc3)c(-c3ccc4c(c3)CC/C4=N\O)[nH]2)cc1`, the % of control in test [5] stood at 100%; in test [6], 80%. For `O[C@H]1CC[C@H](Nc2ncc3nc(Nc4c(F)cc(F)cc4F)n([C@H]4CCOC4)c3n2)CC1`, in test [7], the % of control is 83%.
